Consider 6 compounds from patent US20240052079A1 (OREGON HEALTH & SCIENCE UNIVERSITY, priority 2021, published 2024).

The nature of data set [1]: Hydrolytic degradation kinetics of neat monomers by 1H NMR. In kind it is physicochemical. To be noted: for Percent remaining monomer: 50 mM monomer, aqueous pH=1, 37° C.; for half-life at 50 mM: fit to exponential decay curves, pH=1, read-out: monomer half-life (converted); for final degradation percentage: over one month, acidic aqueous conditions (pH=1). The protocol: Neat monomers were subject to the hydrolytic degradation kinetics assay. An aqueous solution (pH=1) was prepared using HPLC grade water and adjusted using 1.0 M HCI. A 50 mM solution of each monomer (n=3) was prepared using 1.0 mL of the acidic aqueous solution. A capillary tube was filled with a 50 mM solution of tetramethylammonium bromide dissolved in D2O and flame sealed. The capillary tube was placed at the bottom on the NMR tube to allow the “locking on” of the instrument and to act as an internal standard. ^1H NMR spectra were obtained using a water suppression by excitation sculpting experiment. After the initial reading, the NMR tubes were flame sealed and incubated at 37° C. During the first week and after 12, 19, and 30 days, the samples were removed from incubation to obtain water suppressed ^1H NMR spectra. To determine the amount of monomer degradation, spectra were first aligned using the ITSD singlet peak and then an integration region unique to a monomer vinyl proton and an integration region unique to a degradation product (methacrylic or acrylic acid) vinyl proton were used to calculate the ratio of monomer to degradation product. […] Additional integration regions on either side of the vinyl region were used to determine the average amount of noise in each spectra. Degradation product values with a signal to noise ratio of less than 10 were considered to show no measurable amount of degradation.

For data set [2], the system named is odontoblast-like cell line (OD-21). Kind of data set: Cytotoxicity (MTT) assay, OD-21 cells. Particulars: for IC50: read-out: IC50 OD-21; for cell viability, comparison between monomers: OD-21, at 10 and 5 mM. The protocol:
(§1) For the cytotoxicity assay, two cell types were tested—odontoblast-like cell line (OD-21) and human dental pulp stem cells (hDPSC) (cat #PT5025, Lonza). […] Cells were kept in an incubator at 37° C., under humidified atmosphere with 5% CO 2 for 2-3 days until confluence was reached. Next, cells were washed with Dulbecco's phosphate buffered saline solution (PBS—Thermo Fisher Scientific) and detached from the culture flasks using 0.05% trypsin/0.02% EDTA (Sigma). Cells were counted using a hemocytometer, then 10,000 cells per well were seeded in 96-well plates for 24 hours (n=6).
(§2) From these stocks, six different concentrated solutions (0.05, 0.1, 0.5, 1, 5 and 10 mM) were prepared in cell culture medium (DMEM for OD-21 and α-MEM for DPSC) and 100 μl per well was used to incubate the cells.
(§3) Next, 200 μl of DMSO was added to each well, plates were gently agitated and the optical density was read at 570 nm and 630 nm in a spectrophotometer (Epoch Microplate Spectrophotometer, BioTek Instruments Inc, Winooski, VT, USA). OD-21 and DPSCs cultured in the medium free from the monomers were used as negative controls. Additionally, since monomer fluorescence could affect the readings, 10 mM samples of each tested monomer were incubated without cells and their absorbance measured to provide a second control (i.e. medium control). The percentage of cell viability was calculated according to the equations:
(§4) ODcells=(OD570 exper−OD630 exper)−(OD570 med contr−OD630 med contr) Equation (3)
(§5) where: ODcell is the absorbance of the remaining cells after exposure; ODexper is the absorbance of the experimental specimens at 570 nm and 630 nm; ODmed contr is the absorbance of the 10 mM solution of each monomer without cells at 570 nm and 630 nm.
(§6) where: CV (%) is percentage of cell viability in relation to the negative control (cells+medium free from the monomers); ODcells neg contr is the cells absorbance of the negative control; ODcells exper is the cells absorbance of the experimental samples.
(§7) The half maximal inhibitory concentration (IC50) of each tested monomer was determined based on the plots of cell inhibition (%) as a function of the monomers concentration (mM) using GraphPad software.

The subject of data set [3] is human dental pulp stem cells (hDPSC). Kind of data set: Cytotoxicity (MTT) assay, hDPSC. Particulars: for IC50: read-out: IC50 DPSC; for biocompatibility compared with methacrylates: DPSC. The method, then: as §1, §2, §3, §4, §5, §6, §7
A short description of data set [4]: Cytotoxicity (MTT) assay, OD-21 cells. To be noted: mouse. The method, then: as §1, §2, §3, §4, §5, §6, §7
A short description of data set [5]: Partition coefficient (logP). In kind it is physicochemical. To be noted: values not given; source of logP not stated. An excerpt:
When stored dry, all materials had flexural strengths and elastic moduli that were statistically similar to the control. […] […]. The logP determines the likelihood of a compound to partition into water or octanol, with the most hydrophilic compounds presenting lower logP values. Amides are in general more hydrophilic than methacrylates because of the […] of the nitrogen atom in the amide compared to the oxygen in the methacrylate. In addition, the presence of a lone pair of electrons on the nitrogen leads to stabilization of the carbon-nitrogen bond by resonance with the carbonyl. The oxygen in the amide, in turn, assumes a partial negative charge (δ−), making it more prone to function as a hydrogen-bond acceptor. Conversely, the hydrogen of the N-H dipole is partially positively charged (δ+), which renders it a hydrogen-bond donor.

Where [6] appears, read: neat monomer, 24 hours exposure, MTT.

Like-named read-outs stand apart in the source and are kept apart here.

What is called half-life is the time in which the quantity being followed falls by half. A word on the IC50: it is the point on the concentration scale where inhibition reaches its midpoint. On to `C=C(C)C(=O)OCCO` [HEMA, 2-hydroxyethyl methacrylate, reference compound], for which the Percent remaining monomer amounted to 99.2 ± 0.6% in data set [1] (day 0); 93.1 ± 0.04% in data set [1] (day 1); 87.6 ± 0.02% in data set [1] (day 2); 81.3 ± 0.02% in data set [1] (day 3); 76.5 ± 0.01% in data set [1] (day 4); 71.3 ± 0.02% in data set [1] (day 5). Moreover, the Percent remaining monomer is 66.1 ± 0.02% in data set [1] (day 6); 61.9 ± 0.01% in data set [1] (day 7); 43.1 ± 0.02% in data set [1] (day 12); 25.2 ± 0.02% in data set [1] (day 19); 10.6 ± 0.1% in data set [1] (day 30). The half-life at 50 mM in data set [1] is 9.5 days. Further, in data set [1], the final degradation percentage stood at 89.38%. In addition, the IC50 amounted to 15.4 mM in data set [2] (Mus musculus, 24 h) and 6.87 mM in data set [3] (Homo sapiens, 24 h). In data set [2], the “cell viability, comparison between monomers” value is reported as “the highest”.

One may read the viability as a per cent measure of how many cells are alive, often set against a control. A low value points to more harm to the cells. Turning to `C=CC(=O)N(C)CCCN(C)CCCN(C)C(=O)C=C`, the Percent remaining monomer in data set [1] (day 0) turned out to be 100.0 ± 0.0%; in data set [1] (day 1), 99.8 ± 0.01%; in data set [1] (day 2), 100.0 ± 0.0%; in data set [1] (day 3), 100.0 ± 0.0%; in data set [1] (day 4) it was 100.0 ± 0.0%; in data set [1] (day 5), 99.7 ± 0.01%. The Percent remaining monomer came to 100.0 ± 0.0% in data set [1] (day 6); 100.0 ± 0.0% in data set [1] (day 7); 100.0 ± 0.0% in data set [1] (day 12); 99.7 ± 0.3% in data set [1] (day 19); 98.7 ± 1.3% in data set [1] (day 30). The compound also returned a final degradation percentage in data set [1] of 1.27%. In data set [4], this compound returned a viability at 24 h, 5 mM of 24%. This compound also showed a viability at 24 h, 10 mM in data set [4] of 12%. Further, the IC50 in data set [2] (Mus musculus, 24 h) was found to be 4.75 mM; in data set [3] (Homo sapiens, 24 h) it was 0.54 mM. Besides, the “cell viability, comparison between monomers” value in data set [2] is “the lowest cell viability”. Further, the “biocompatibility compared with methacrylates” value in data set [3] (5 mM) was “less biocompatible than the tested methacrylates”.

Take `C=CC(=O)NN1CCCN(NC(=O)C=C)CC1` [BAADA, N,N′-bis(acrylamido) 1,4-diazepane]: the Percent remaining monomer is reported as 100.0 ± 0.0% in data set [1] (day 0); 100.0 ± 0.0% in data set [1] (day 1); 100.0 ± 0.0% in data set [1] (day 2); 100.0 ± 0.0% in data set [1] (day 3); 99.8 ± 0.2% in data set [1] (day 4); 100.0 ± 0.0% in data set [1] (day 6). Besides, the Percent remaining monomer in data set [1] (day 12) is given as 99.6 ± 0.4%; in data set [1] (day 19), 92.3 ± 0.7%; in data set [1] (day 30), 98.9 ± 1.2%. Besides, the final degradation percentage in data set [1] is 1.13%. The IC50 in data set [2] (Mus musculus, 24 h) was 9.98 mM; in data set [3] (Homo sapiens, 24 h) it was 3.65 mM.

Regarding `C=CC(=O)N(C)CCN(CCN(C)C(=O)C=C)CCN(C)C(=O)C=C`, the Percent remaining monomer in data set [1] (day 0) turned out to be 100.0 ± 0.0%; in data set [1] (day 1), 99.8 ± 0.2%; in data set [1] (day 2), 99.8 ± 0.2%; in data set [1] (day 3) it was 99.3 ± 0.7%; in data set [1] (day 4), 99.2 ± 0.9%; in data set [1] (day 5) it was 99.1 ± 0.7%. In addition, the Percent remaining monomer in data set [1] (day 6) was 99.0 ± 1.0%; in data set [1] (day 7), 98.7 ± 1.3%; in data set [1] (day 19), 96.7 ± 1.8%; in data set [1] (day 30), 93.7 ± 0.7%. Further, the half-life at 50 mM in data set [1] was 350 days. This compound yielded a final degradation percentage in data set [1] of 6.29%. Further, the 50% inhibitory concentration (IC50) in data set [2] (Mus musculus, 24 h) was determined as 8.02 mM; in data set [3] (Homo sapiens, 24 h), 1.07 mM. Also, in data set [3] (0.5 mM), the “biocompatibility compared with methacrylates” value is “less biocompatible than the tested methacrylates”. Besides, the “logP, ranking among tested monomers” value in data set [5] is “lower logP”.

Consider “N,N-Diethyl-1,3-bis(acrylamido)propane [DEBAAP, reference compound]”, for which the 50% inhibitory concentration (IC50) was found to be 7.11 mM in data set [2] (setting [6]) and 8.43 mM in data set [3] (setting [6]).

As to “urethane dimethacrylate [UDMA, reference compound]”, the IC50 in data set [2] (setting [6]) came out at 7.94 mM; in data set [3] (setting [6]) it was 10.3 mM.
